Reference: EP3381897A1, “DERIVATIVES OF THE DISODIUM 2,2'-{CARBONYLBIS[IMINO-3,1-PHENYLENECARBONYLIMINO(1-METHYL-1H-PYRROLE-4,2-DIYL)CARBONYLIMINO]}DINAPHTHALENE-1,5-DISULFONATE SALT AND RELATED COMPOUNDS AS HEPARANASE INHIBITORS FOR THE TREATMENT OF CANCER” (Leadiant Biosciences SA, priority 2017, dated 2018)
pIC50: −log10 of the molar value. Structures can show the parent of a compound that is named as a salt.

How the values were obtained:
[1] = system: HT1080 (human fibrosarcoma); test: Cell adhesion assay on matrigel coated wells; format: cell-based; conditions: percent of adhesion with respect to the control (100%)
Protocol: Cell surface, non-integrin molecules such as heparan sulfate proteoglycans (HSPGs) may be involved in the regulation of early adhesive stages of cell-ECM interactions. A cell adhesion assay has been employed to determine if the newly designed heparanase inhibitors were able to interfere with adhesion properties of cancer cells. […] Then cells were collected, washed in complete medium, and added to matrigel coated wells in triplicate, at previously identified optimal seeding density, and incubated at 37 °C in complete medium for times ranging from 15 minutes to 4h, according to the cell line. […] Optical density was measured at 560 nm by Victor 3 (Perkin-Elmer) plate analyzer. Each experiment was repeated three times. Table 4. […] In Invasion assay, data were expressed as the percent invasion (range) with respect to cell migration through uncoated insert membrane.

FGF-1 = test: Real-Time quantitative PCR of mRNA gene expression in HT1080 cells; format: cell-based, human; conditions: 2.5 uM, 24 h
FGF-2 = test: as above; format: cell-based, human; conditions: 2.5 uM, 24 h
VEGF = test: as above; format: cell-based, human; conditions: 2.5 uM, 24 h
MMP-9 = test: as above; format: cell-based, human; conditions: 2.5 uM, 24 h
HPSE-1 = conditions: 2.5µM; HT1080 cells
Protocol: To evaluate the effect of heparanase inhibitors on the tumor transcription of genes encoding for proangiogenic factors, such as FGF1/2, VEGF, MMP-9, HSPE-1, the relative mRNA levels were analyzed by quantitative Real-Time Quantitative PCR. To perform the assay, HT1080 (human fibrosarcoma) cells were cultured in complete medium containing 10%FCS (fetal calf serum). Cells were plated in 24-well plates and treated at fixed concentration (i.e., highest non-toxic concentration) of test compounds. After 24 h, cells were detached, collected and total RNA extracted by RNeasy Mini Kit (QIAGEN). Following reverse transcription step, FGF1/2, VEGF, MMP-9, HSPE-1 mRNA levels, were quantified by qPCR using the advanced Universal SYBR Green Supermix (Bio Rad) and ABI PRISM 7900HT Thermal Cycler System (Perkin Elmer), according to the manufacturer's instructions. […] Relative levels of RNA were calculated using the ddCt method. Standard curve and sample data were run in duplicate.

[2] = system: HT1080 (human fibrosarcoma); test: SRB Cell Cytotoxicity Assay; format: cell-based
Protocol: (§1) SRB Cell Cytotoxicity Assay is an assay based upon the quantitative staining of cellular proteins by sulforhodamine B (SRB). This assay can be used for high-throughput drug screening ([…], Nature Protocol. 2006, 1, 112). Sulforhodamine B is an anionic aminoxanthene dye that forms an electrostatic complex with the basic amino acid residues of proteins under moderately acid conditions, which provides a sensitive linear response. […] Inhibition of cell proliferation was then measured by the classical colorimetric SRB Cell Cytotoxicity assay. Absorbance was measured by spectrophotometer at a wavelength of 510 nm and cell proliferation was determined as percent with respect to control cells (cells treated with the vehicle alone). EC50 values were then determined by GraphPad Prism.

[3] = system: U2OS (human osteosarcoma); test: SRB Cell Cytotoxicity Assay; format: cell-based
Protocol: as §1

[4] = system: U87MG (human glioblastoma astrocytoma); test: SRB Cell Cytotoxicity Assay; format: cell-based
Protocol: as §1

[5] = system: HT1080 (human fibrosarcoma); test: Matrigel cell invasion assay; format: cell-based; conditions: HT-1080
Protocol: Heparanase inhibitors were then evaluated for their activity on the invasive potential of HT1080 (human fibrosarcoma) human cell lines, using the Matrigel cell invasion assay which allows to assess the cell invasion ability of malignant and normal cells. Invasion assay was performed using BioCoat cell culture inserts (BioCoat 8.0µm PET Membrane 24 Well Permeable Supports, Corning). Filters were coated with 100 µl of 300 µg/ml Matrigel dissolved in coating buffer (0.01 M Tris pH 8.0, 0.7% NaCl) (Becton-Dickinson Sciences). DMEM (Dulbecco's Modified Eagle's Medium) containing 5% FBS was added to the lower chambers. Cells were pre-treated with heparanase inhibitors for 24 h, detached and added to the upper chambers in media containing the inhibitors. Cells were allowed to invade for 24 h at 37°C in a CO2 incubator and then unmigrated cells were removed from the upper chamber with a cotton swab. […] Test compounds were analyzed at fixed concentration for several fields, in duplicates. Activity of test compounds was compared to the reference compound. Activity of most interesting compound was confirmed in a second cell invasion assay. Data were expressed as the percent invasion with respect to cell migration through uncoated insert membrane. (Table 4) Table 4. […] In Invasion assay, data were expressed as the percent invasion (range) with respect to cell migration through uncoated insert membrane.

SMILES	Adhesion Assay (%) HT1080; 2.5 µM ([1]; 2.5 µM)	Gene Expression (% mRNA vs. control) FGF-1 (FGF-1)	Gene Expression (% mRNA vs. control) FGF-2 (FGF-2)	Gene Expression (% mRNA vs. control) VEGF (VEGF)	Gene Expression (% mRNA vs. control) MMP-9 (MMP-9)	silencing of heparanase gene (in words) (HPSE-1)	other results
Cn1cc(NC(=O)c2cccc(NC(=O)Nc3cccc(C(=O)Nc4cc(C(=O)Nc5ccc6c(S(=O)(=O)O)cccc6c5S(=O)(=O)O)n(C)c4)c3)c2)cc1C(=O)Nc1ccc2c(S(=O)(=O)[O-])cccc2c1S(=O)(=O)[O-].[Na+].[Na+] [Example 1, Disodium 2,2'-{carbonylbis[imino-3,1-phenylenecarbonylimino(1-methyl-1H-pyrrole-4,2-diyl)carbonylimino]}dinaphthalene-1,5-disulfonate salt]	∼ 86%	–	–	–	–	–	–
O=C(Nc1cccc(C(=O)Nc2cc(C(=O)Nc3ccc4c(S(=O)(=O)[O-])cccc4c3S(=O)(=O)[O-])n(C3CC3)c2)c1)Nc1cccc(C(=O)Nc2cc(C(=O)Nc3ccc4c(S(=O)(=O)O)cccc4c3S(=O)(=O)O)n(C3CC3)c2)c1.[Na+].[Na+] [Example 2, Disodium 2,2'-{carbonylbis[imino-3,1-phenylenecarbonylimino(1-cyclopropyl-1H-pyrrole-4,2-diyl)carbonylimino]}dinaphthalene-1,5-disulfonate salt]	∼ 88%	–	–	–	–	–	–
Cn1cc(NC(=O)Nc2cc(C(=O)Nc3cccc(C(=O)Nc4ccc5c(S(=O)(=O)O)cccc5c4S(=O)(=O)O)c3)n(C)c2)cc1C(=O)Nc1cccc(C(=O)Nc2ccc3c(S(=O)(=O)O)cccc3c2S(=O)(=O)O)c1 [Example 6, Disodium 2,2'-{carbonylbis[imino(1-methyl-1H-pyrrole-4,2-diyl)carbonylimino-3,1-phenylenecarbonylimino]}dinaphthalene-1,5-disulfonate salt]	∼ 86%	∼ 87%	∼ 98%	∼ 85%	∼ 80%	almost complete silencing of heparanase gene	–
Cn1cc(NC(=O)Nc2cc(C(=O)Nc3cc(C(=O)Nc4ccc5c(S(=O)(=O)O)cccc5c4S(=O)(=O)O)n(C)c3)n(C)c2)cc1C(=O)Nc1cc(C(=O)Nc2ccc3c(S(=O)(=O)O)cccc3c2S(=O)(=O)O)n(C)c1 [FCE27266, disodium 2,2'-{carbonylbis[imino(1-methyl-1H-pyrrole-4,2-diyl)carbonylimino(1-methyl-1H-pyrrole-4,2-diyl)carbonylimino]}dinaphthalene-1,5-disulfonate salt]	∼ 93%	∼ 44%	∼ 86%	∼ 100%	∼ 100%	almost complete silencing of heparanase gene	–
Cc1ccc(C(=O)Nc2ccc(S(=O)(=O)O)c3cc(S(=O)(=O)O)cc(S(=O)(=O)O)c23)cc1NC(=O)c1cccc(NC(=O)Nc2cccc(C(=O)Nc3cc(C(=O)Nc4ccc(S(=O)(=O)O)c5cc(S(=O)(=O)O)cc(S(=O)(=O)O)c45)ccc3C)c2)c1 [Suramin, suramin]	–	–	–	–	–	–	interference with the cell growth (in words) ([2]; HT1080, tested up to 2.5 µM): do not interfere with the cell growth; pIC50 ([2]; Homo sapiens, HT-1080, 72h treatment, read-out: Concentration of test compounds at which the cell growth is inhibited by 50 % HT1080): < 5.60; pIC50 ([3]; Homo sapiens, 72h treatment, read-out: Concentration of test compounds at which the cell growth is inhibited by 50 % U2OS): < 5.60; interference with the cell growth (in words) ([3]; tested up to 2.5 µM): do not interfere with the cell growth; pIC50 ([4]; Homo sapiens, U-87 MG, 72h treatment, read-out: Concentration of test compounds at which the cell growth is inhibited by 50 % U87MG): < 5.60; interference with the cell growth (in words) ([4]; U87MG, tested up to 2.5 µM): do not interfere with the cell growth; inhibition at 2.5 µM [5]: < 50%; Adhesion Assay (%) HT1080; 2.5 µM ([1]; Reference compound (Suramin) at 10 µM according to b319): ∼ 100%
